{"source": "patent US20180057507A1", "about": "“INHIBITORS OF DUAL LEUCINE ZIPPER (DLK) KINASE FOR THE TREATMENT OF DISEASE” (Board of Regents, The University of Texas System, priority 2016, published 2018)", "data": [{"target": "T1, human DLK (Homo sapiens, UniProt Q12852)", "T1 sequence (Q12852 1-859)": "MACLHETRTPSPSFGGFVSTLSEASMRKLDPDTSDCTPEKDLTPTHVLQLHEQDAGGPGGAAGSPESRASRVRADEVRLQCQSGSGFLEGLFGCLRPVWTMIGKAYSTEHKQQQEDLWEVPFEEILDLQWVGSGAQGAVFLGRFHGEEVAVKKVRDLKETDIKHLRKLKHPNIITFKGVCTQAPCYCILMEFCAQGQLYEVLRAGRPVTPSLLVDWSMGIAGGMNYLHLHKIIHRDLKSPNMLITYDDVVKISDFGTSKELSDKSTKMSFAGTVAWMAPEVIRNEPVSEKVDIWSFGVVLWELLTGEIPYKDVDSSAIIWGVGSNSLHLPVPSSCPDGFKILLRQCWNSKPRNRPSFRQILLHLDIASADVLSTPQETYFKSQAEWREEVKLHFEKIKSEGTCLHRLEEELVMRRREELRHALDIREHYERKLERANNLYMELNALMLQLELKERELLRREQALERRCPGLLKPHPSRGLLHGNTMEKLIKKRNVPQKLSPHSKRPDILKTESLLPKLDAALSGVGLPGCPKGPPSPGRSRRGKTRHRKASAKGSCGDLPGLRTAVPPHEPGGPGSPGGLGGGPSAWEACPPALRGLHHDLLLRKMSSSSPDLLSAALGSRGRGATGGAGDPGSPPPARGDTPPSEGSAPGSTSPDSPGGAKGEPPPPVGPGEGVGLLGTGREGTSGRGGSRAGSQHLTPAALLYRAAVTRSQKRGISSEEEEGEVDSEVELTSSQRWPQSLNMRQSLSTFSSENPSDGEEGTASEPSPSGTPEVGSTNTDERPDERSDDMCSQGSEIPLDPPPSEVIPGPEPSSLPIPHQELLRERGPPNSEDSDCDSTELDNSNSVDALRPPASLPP", "assay": "DLK Kd Determinations (KINOMEscan KdELECT, DiscoveRx)", "parameters": "full length of human DLK (amino acids 1-859); host or cells: transiently transfected HEK293 cells; unpurified extract", "settings": "fusion protein of full length human DLK (amino acids 1-859) and NFkB DNA binding domain; qPCR readout; duplicate", "procedure": "The DLK dissociation constants (Kd) have been determined in the KINOMEscan KdELECT Service at DiscoveRx.\nA fusion protein of full length of human DLK (amino acids 1-859) and the DNA binding domain of NFkB was expressed in transiently transfected HEK293 cells. From these HEK 293 cells, extracts were prepared in M-PER extraction buffer (Pierce) in the presence of Protease Inhibitor Cocktail Complete (Roche) and Phosphatase Inhibitor Cocktail Set II (Merck) per manufacturers' instructions. The DLK fusion protein was labeled with a chimeric double-stranded DNA tag containing the NFkB binding site (5′-GGGAATTCCC-3′) fused to an amplicon for qPCR readout, which was added directly to the expression extract (the final concentration of DNA-tag in the binding reaction is 0.1 nM).\nStreptavidin-coated magnetic beads (Dynal M280) were treated with a biotinylated small molecule ligand for 30 minutes at room temperature to generate affinity resins the binding assays. The liganded beads were blocked with excess biotin and washed with blocking buffer (SeaBlock (Pierce), 1% BSA, 0.05% Tween 20, 1 mM DTT) to remove unbound ligand and to reduce nonspecific binding.\nExtracts were used directly in binding assays without any enzyme purification steps at a ≧10,000-fold overall stock dilution (final DNA-tagged enzyme concentration <0.1 nM). Extracts were loaded with DNA-tag and diluted into the binding reaction in a two step process. First extracts were diluted 1:100 in 1× binding buffer (PBS/0.05% Tween 20/10 mM DTT/0.1% BSA/2 μg/ml sonicated salmon sperm DNA) containing 10 nM DNA-tag. This dilution was allowed to equilibrate at room temperature for 15 minutes and then subsequently diluted 1:100 in 1× binding buffer. Test compounds were prepared as 111× stocks in 100% DMSO. Kds were determined using an 11-point 3-fold compound dilution series with three DMSO control points. All compounds for Kd measurements are distributed by acoustic transfer (non-contact dispensing) in 100% DMSO. The compounds were then diluted directly into the assays such that the final concentration of DMSO was 0.9%. All reactions performed in polypropylene 384-well plates. Each was a final volume of 0.02 mL. Assays were incubated with shaking for 1 hour at room temperature. Then the beads were pelleted and washed with wash buffer (1×PBS, 0.05% Tween 20) to remove displaced kinase and test compound. The washed based were re-suspended in elution buffer (1×PBS, 0.05% Tween 20, 0.5 μM non-biotinylated affinity ligand) and incubated at room temperature with shaking for 30 minutes. The kinase concentration in the eluates was measured by qPCR. qPCR reactions were assembled by adding 2.5 μL of kinase eluate to 7.5 μL of qPCR master mix containing 0.15 μM amplicon primers and 0.15 μM amplicon probe. The qPCR protocol consisted of a 10 minute hot start at 95° C., followed by 35 cycles of 95° C. for 15 seconds, 60° C. for 1 minute.\nTest compounds were prepared as 111× stocks in 100% DMSO. Kds were determined using an 11-point 3-fold compound dilution series with three DMSO control points. All compounds for Kd measurements are distributed by acoustic transfer (non-contact dispensing) in 100% DMSO. The compounds were then diluted directly into the assays such that the final concentration of DMSO was 0.9%. The Kds were determined using a compound top concentration of 30,000 nM. Kd measurements were performed in duplicate.\nBinding constants (Kds) were calculated with a standard dose-response curve using the Hill equation: […]\nThe Hill Slope was set to −1. Curves were fitted using a non-linear least square fit with the Levenberg-Marquardt algorithm (Levenberg, K., A method for the solution of certain non-linear problems in least squares, Q. Appl. Math. 2, 164-168 (1944)). See also Fabian, M. A. et al. A small molecule-kinase interaction map for clinical kinase inhibitors. Nat. Biotechnol. […]", "units": {"Kd": "nM"}, "values": [{"compound": "Nc1ncc(-c2cn(C3CC3)c(C3CC3)n2)cc1C(F)(F)F", "note": "[Example 9, 5-(1,2-dicyclopropyl-1H-imidazol-4-yl)-3-(trifluoromethyl)pyridin-2-amine]", "Kd": 240}, {"compound": "CC(C)c1nc(-c2cnc(N)c(OC(F)F)c2)cn1[C@H]1[C@@H]2CN(C3CCOCC3)C[C@@H]21", "note": "[Example 60, 3-(difluoromethoxy)-5-(2-isopropyl-1-((1R,5S,6s)-3-(tetrahydro-2H-pyran-4-yl)-3-azabicyclo[3.1.0]hexan-6-yl)-1H-imidazol-4-yl)pyridin-2-amine]", "Kd": 180}, {"compound": "CC(=O)N1C[C@@H]2[C@H](C1)[C@H]2n1cc(-c2cnc(N)c(C(F)(F)F)c2)nc1CC1CC1", "note": "[Example 114, 1-((1R,5S,6s)-6-(4-(6-amino-5-(trifluoromethyl)pyridin-3-yl)-2-(cyclopropylmethyl)-1H-imidazol-1-yl)-3-azabicyclo[3.1.0]hexan-3-yl)ethan-1-one]", "Kd": 66}, {"compound": "CC(C)c1nc(-c2cnc(N)c(C(F)(F)F)c2)cn1[C@H]1[C@@H]2CN(CCF)C[C@@H]21", "note": "[Example 16, 5-(1-((1R,5S,6s)-3-(2-fluoroethyl)-3-azabicyclo[3.1.0]hexan-6-yl)-2-isopropyl-1H-imidazol-4-yl)-3-(trifluoromethyl)pyridin-2-amine]", "Kd": 68}, {"compound": "CC(C)c1nc(-c2cnc(N)c(C(F)(F)F)c2)cn1[C@H]1[C@@H]2CN(C3CCOCC3)C[C@@H]21", "note": "[Example 13, 5-(2-isopropyl-1-((1R,5S,6s)-3-(tetrahydro-2H-pyran-4-yl)-3-azabicyclo[3.1.0]hexan-6-yl)-1H-imidazol-4-yl)-3-(trifluoromethyl)pyridin-2-amine]", "Kd": 78}, {"compound": "Nc1ncc(-c2cn([C@H]3[C@@H]4CNC[C@@H]43)c(C3CC3)n2)cc1OC(F)F", "note": "[Example 96, 5-(1-((1R,5S,6s)-3-azabicyclo[3.1.0]hexan-6-yl)-2-cyclopropyl-1H-imidazol-4-yl)-3-(difluoromethoxy)pyridin-2-amine]", "Kd": 53}, {"compound": "Nc1ncc(-c2cn3c(n2)COCC3)cc1C(F)(F)F", "note": "[Example 10, 5-(5,6-dihydro-8H-imidazo[2,1-c][1,4]oxazin-2-yl)-3-(trifluoromethyl)pyridin-2-amine]", "Kd": 840}, {"compound": "Nc1ncc(-c2cn([C@H]3[C@@H]4CNC[C@@H]43)c(CC3CC3)n2)cc1OC(F)F", "note": "[Example 86, 5-(1-((1R,5S,6s)-3-azabicyclo[3.1.0]hexan-6-yl)-2-(cyclopropylmethyl)-1H-imidazol-4-yl)-3-(difluoromethoxy)pyridin-2-amine]", "Kd": 110}, {"compound": "Nc1ncc(-c2cn([C@H]3[C@@H]4CN(C5COC5)C[C@@H]43)c(C3CC3)n2)cc1OC(F)F", "note": "[Example 104, 5-(2-cyclopropyl-1-((1R,5S,6s)-3-(oxetan-3-yl)-3-azabicyclo[3.1.0]hexan-6-yl)-1H-imidazol-4-yl)-3-(difluoromethoxy)pyridin-2-amine]", "Kd": 66}, {"compound": "Nc1ncc(-c2cn([C@H]3[C@@H]4CN(C5COC5)C[C@@H]43)c(C3CCCC3)n2)cc1OC(F)F", "note": "[Example 64, 5-(2-cyclopentyl-1-((1R,5S,6s)-3-(oxetan-3-yl)-3-azabicyclo[3.1.0]hexan-6-yl)-1H-imidazol-4-yl)-3-(difluoromethoxy)pyridin-2-amine]", "Kd": 120}, {"compound": "Nc1ncc(-c2cn([C@H]3[C@@H]4CNC[C@@H]43)c(CC3CC3)n2)cc1C(F)(F)F", "note": "[Example 59, 5-(1-((1R,5S,6s)-3-azabicyclo[3.1.0]hexan-6-yl)-2-(cyclopropylmethyl)-1H-imidazol-4-yl)-3-(trifluoromethyl)pyridin-2-amine]", "Kd": 50}, {"compound": "COCCN1C[C@@H]2[C@H](C1)[C@H]2n1cc(-c2cnc(N)c(OC(F)(F)F)c2)nc1CC1CC1", "note": "[Example 100, 5-(2-(cyclopropylmethyl)-1-((1R,5S,6s)-3-(2-methoxyethyl)-3-azabicyclo[3.1.0]hexan-6-yl)-1H-imidazol-4-yl)-3-(trifluoromethoxy)pyridin-2-amine]", "Kd": 66}, {"compound": "CC(C)c1nc(-c2cnc(N)c(C(F)(F)F)c2)cn1C", "note": "[Example 21, 5-(2-isopropyl-1-methyl-1H-imidazol-4-yl)-3-(trifluoromethyl)pyridin-2-amine]", "Kd": 640}, {"compound": "Nc1ncc(-c2cn(C3CC3)c(CC3CC3)n2)cc1C(F)(F)F", "note": "[Example 47, 5-(1-cyclopropyl-2-(cyclopropylmethyl)-1H-imidazol-4-yl)-3-(trifluoromethyl)pyridin-2-amine]", "Kd": 120}, {"compound": "Nc1ncc(-c2cn3c(n2)C(C2CC2)OCC3)cc1C(F)(F)F", "note": "(centres unmarked) [Example 49, 5-(8-cyclopropyl-5,6-dihydro-8H-imidazo[2,1-c][1,4]oxazin-2-yl)-3-(trifluoromethyl)pyridin-2-amine]", "Kd": 1200}, {"compound": "CC(C)c1nc(-c2cnc(N)c(C(F)(F)F)c2)cn1C1CCN(C2COC2)C1", "note": "(centres unmarked) [Example 36, 5-(2-isopropyl-1-(1-(oxetan-3-yl)pyrrolidin-3-yl)-1H-imidazol-4-yl)-3-(trifluoromethyl)pyridin-2-amine]", "Kd": 350}, {"compound": "Nc1ncc(-c2cn([C@H]3[C@@H]4CNC[C@@H]43)c(CC(F)(F)F)n2)cc1C(F)(F)F", "note": "[Example 120, 5-(1-((1R,5S,6s)-3-azabicyclo[3.1.0]hexan-6-yl)-2-(2,2,2-trifluoroethyl)-1H-imidazol-4-yl)-3-(trifluoromethyl)pyridin-2-amine]", "Kd": 40}, {"compound": "Nc1ncc(-c2cn([C@H]3[C@@H]4CN(CC(F)(F)F)C[C@@H]43)c(CC3CC3)n2)cc1OC(F)F", "note": "[Example 102, 5-(2-(cyclopropylmethyl)-1-((1R,5S,6s)-3-(2,2,2-trifluoroethyl)-3-azabicyclo[3.1.0]hexan-6-yl)-1H-imidazol-4-yl)-3-(difluoromethoxy)pyridin-2-amine]", "Kd": 280}, {"compound": "Nc1ncc(-c2cn(C3CC3)c(CC(F)(F)F)n2)cc1C(F)(F)F", "note": "[Example 46, 5-(1-cyclopropyl-2-(2,2,2-trifluoroethyl)-1H-imidazol-4-yl)-3-(trifluoromethyl)pyridin-2-amine]", "Kd": 280}, {"compound": "Nc1ncc(-c2cn([C@H]3[C@@H]4CN(CC(F)F)C[C@@H]43)c(CC3CC3)n2)cc1OC(F)F", "note": "[Example 89, 5-(2-(cyclopropylmethyl)-1-((1R,5S,6s)-3-(2,2-difluoroethyl)-3-azabicyclo[3.1.0]hexan-6-yl)-1H-imidazol-4-yl)-3-(difluoromethoxy)pyridin-2-amine]", "Kd": 290}]}]}
